We go through 35 molecules from patent US20050004134A1, “Thiazole derivative and pharmaceutical use thereof” (priority 2001, published 2005).

A value given as a limit tells only on which side of the number the result lay.

For orientation: melting point means the temperature, or range, at which the solid turns liquid.

For the molecule `COCCn1nc(-c2sc(C(N)=O)nc2-c2ccccc2)ccc1=O` [Example 168, 5-[1-(2-Methoxyethyl)-6-oxo-1,6-dihydro-3-pyridazinyl]-4-phenyl-1,3-thiazole-2-carboxamide], the melting point was in the range of 198 to 199.5 °C.
In the case of `CCCNC(=O)c1nc(-c2ccccc2)c(-c2ccc(=O)[nH]n2)s1` [Example 169, 5-(6-oxo-1,6-dihydro-3-pyridazinyl)-4-phenyl-N-propyl-1,3-thiazole-2-carboxamide], the melting point lay within 232 to 233 °C.
`CCCNC(=O)c1nc(-c2ccccc2)c(-c2ccc(=O)n(C)n2)s1` [Example 170, 5-(1-methyl-6-oxo-1,6-dihydro-3-pyridazinyl)-4-phenyl-N-propyl-1,3-thiazole-2-carboxamide] returned a melting point of 108 to 109 °C.
Consider `CCCNC(=O)c1nc(-c2ccccc2)c(-c2ccc(=O)n(CC)n2)s1` [Example 171, 5-(1-ethyl-6-oxo-1,6-dihydro-3-pyridazinyl)-4-phenyl-N-propyl-1,3-thiazole-2-carboxamide], for which the melting point was 106.5 to 107.5 °C.
For `CCCNC(=O)c1nc(-c2ccccc2)c(-c2ccc(=O)n(CCC)n2)s1` [Example 172, 5-(6-oxo-1-propyl-1,6-dihydro-3-pyridazinyl)-4-phenyl-N-propyl-1,3-thiazole-2-carboxamide], the melting point lay in the range of 121 to 122 °C.
With `CCCNC(=O)c1nc(-c2ccccc2)c(-c2ccc(=O)n(C(C)C)n2)s1` [Example 173, 5-(1-isopropyl-6-oxo-1,6-dihydro-3-pyridazinyl)-4-phenyl-N-propyl-1,3-thiazole-2-carboxamide], the melting point was in the range of 141 to 142 °C.
Molecule `CCCNC(=O)c1nc(-c2ccccc2)c(-c2ccc(=O)n(Cc3ccccc3)n2)s1` [Example 174, 5-(1-benzyl-6-oxo-1,6-dihydro-3-pyridazinyl)-4-phenyl-N-propyl-1,3-thiazole-2-carboxamide] gave a melting point of 120 to 121 °C.
For `CCCNC(=O)c1nc(-c2ccc(F)cc2)c(-c2ccc(=O)n(C(C)C)n2)s1` [Example 175, 4-(4-fluorophenyl)-5-(1-isopropyl-6-oxo-1,6-dihydro-3-pyridazinyl)-N-propyl-1,3-thiazole-2-carboxamide], the melting point lay in the range of 146.5 to 147.5 °C.
For the molecule `CC(C)NC(=O)c1nc(-c2ccccc2)c(-c2ccc(=O)[nH]n2)s1` [Example 176, N-isopropyl-5-(6-oxo-1,6-dihydro-3-pyridazinyl)-4-phenyl-1,3-thiazole-2-carboxamide], the melting point is > 250 °C.
`CC(C)NC(=O)c1nc(-c2ccccc2)c(-c2ccc(=O)n(C)n2)s1` [Example 177, N-isopropyl-5-(1-methyl-6-oxo-1,6-dihydro-3-pyridazinyl)-4-phenyl-1,3-thiazole-2-carboxamide] came in with a melting point of 154 to 154.5 °C.
As for `CCn1nc(-c2sc(C(=O)NC(C)C)nc2-c2ccccc2)ccc1=O` [Example 178, 5-(1-ethyl-6-oxo-1,6-dihydro-3-pyridazinyl)-N-isopropyl-4-phenyl-1,3-thiazole-2-carboxamide], the figure is 152.5 to 153 °C; as for `CCCn1nc(-c2sc(C(=O)NC(C)C)nc2-c2ccccc2)ccc1=O` [Example 179, N-isopropyl-5-(6-oxo-1-propyl-1,6-dihydro-3-pyridazinyl)-4-phenyl-1,3-thiazole-2-carboxamide], 146.5 to 147.5 °C.
Regarding `CC(C)NC(=O)c1nc(-c2ccccc2)c(-c2ccc(=O)n(C(C)C)n2)s1` [Example 180, N-isopropyl-5-(1-isopropyl-6-oxo-1,6-dihydro-3-pyridazinyl)-4-phenyl-1,3-thiazole-2-carboxamide], the melting point is 131 to 132.5 °C.
As for `C=CCn1nc(-c2sc(C(=O)NC(C)C)nc2-c2ccccc2)ccc1=O` [Example 181, 5-(1-allyl-6-oxo-1,6-dihydro-3-pyridazinyl)-N-isopropyl-4-phenyl-1,3-thiazole-2-carboxamide], the figure is 166 to 167 °C.
`CC(C)NC(=O)c1nc(-c2ccccc2)c(-c2ccc(=O)n(Cc3ccccc3)n2)s1` [Example 182, 5-(1-benzyl-6-oxo-1,6-dihydro-3-pyridazinyl)-N-isopropyl-4-phenyl-1,3-thiazole-2-carboxamide] returned a melting point of 163.5 to 165 °C.
The molecule `COCCn1nc(-c2sc(C(=O)NC(C)C)nc2-c2ccccc2)ccc1=O` [Example 183, N-isopropyl-5-[1-(2-methoxyethyl)-6-oxo-1,6-dihydro-3-pyridazinyl]-4-phenyl-1,3-thiazole-2-carboxamide] gave a melting point of 172 to 172.5 °C.
Consider `CC(C)NC(=O)c1nc(-c2ccccc2F)c(-c2ccc(=O)n(C(C)C)n2)s1` [Example 184, 4-(2-fluorophenyl)-N-isopropyl-5-(1-isopropyl-6-oxo-1,6-dihydro-3-pyridazinyl)-1,3-thiazole-2-carboxamide], for which the melting point fell in the range of 129 to 130.5 °C.
`CC(C)NC(=O)c1nc(-c2cccc(F)c2)c(-c2ccc(=O)n(C(C)C)n2)s1` [Example 185, 4-(3-fluorophenyl)-N-isopropyl-5-(1-isopropyl-6-oxo-1,6-dihydro-3-pyridazinyl)-1,3-thiazole-2-carboxamide]: the melting point lay within 103.5 to 105.5 °C.
As for `CC(C)NC(=O)c1nc(-c2ccc(F)cc2)c(-c2ccc(=O)n(C(C)C)n2)s1` [Example 186, 4-(4-fluorophenyl)-N-isopropyl-5-(1-isopropyl-6-oxo-1,6-dihydro-3-pyridazinyl)-1,3-thiazole-2-carboxamide], the melting point is 122 to 123.5 °C.
`CC(C)NC(=O)c1nc(-c2cccc(Cl)c2)c(-c2ccc(=O)n(C(C)C)n2)s1` [Example 187, 4-(3-chlorophenyl)-N-isopropyl-5-(1-isopropyl-6-oxo-1,6-dihydro-3-pyridazinyl)-1,3-thiazole-2-carboxamide] yielded a melting point of 105 to 106 °C.
Take `O=C(NC1CC1)c1nc(-c2ccccc2)c(-c2ccc(=O)[nH]n2)s1` [Example 188, N-cyclopropyl-5-(6-oxo-1,6-dihydro-3-pyridazinyl)-4-phenyl-1,3-thiazole-2-carboxamide]: the melting point is > 250 °C.
Molecule `Cn1nc(-c2sc(C(=O)NC3CC3)nc2-c2ccccc2)ccc1=O` [Example 189, N-cyclopropyl-5-(1-methyl-6-oxo-1,6-dihydro-3-pyridazinyl)-4-phenyl-1,3-thiazole-2-carboxamide] gave a melting point of 163 to 164 °C.
Turning to `CCn1nc(-c2sc(C(=O)NC3CC3)nc2-c2ccccc2)ccc1=O` [Example 190, N-cyclopropyl-5-(1-ethyl-6-oxo-1,6-dihydro-3-pyridazinyl)-4-phenyl-1,3-thiazole-2-carboxamide], the melting point lay within 144 to 145 °C.
`CCCn1nc(-c2sc(C(=O)NC3CC3)nc2-c2ccccc2)ccc1=O` [Example 191, N-cyclopropyl-5-(6-oxo-1-propyl-1,6-dihydro-3-pyridazinyl)-4-phenyl-1,3-thiazole-2-carboxamide] yielded a melting point of 146 to 147 °C.
Take `CC(C)n1nc(-c2sc(C(=O)NC3CC3)nc2-c2ccccc2)ccc1=O` [Example 192, N-cyclopropyl-5-(1-isopropyl-6-oxo-1,6-dihydro-3-pyridazinyl)-4-phenyl-1,3-thiazole-2-carboxamide]: the melting point fell in the range of 127 to 128 °C.
For the molecule `C=CCn1nc([SH]2C=C(c3ccccc3)N=C2C(=O)NC2CC2)ccc1=O` (stereo not drawn) [Example 193, S-(1-allyl-6-oxo-1,6-dihydro-3-pyridazinyl)-N-cyclopropyl-4-phenyl-1,3-thiazole-2-carboxamide], the melting point lay in the range of 167.5 to 168.5 °C.
Consider `O=C(NC1CC1)c1nc(-c2ccccc2)c(-c2ccc(=O)n(Cc3ccccc3)n2)s1` [Example 194, 5-(1-benzyl-6-oxo-1,6-dihydro-3-pyridazinyl)-N-cyclopropyl-4-phenyl-1,3-thiazole-2-carboxamide], for which the melting point lay in the range of 151 to 152.5 °C.
`CC(C)n1nc(-c2sc(C(=O)NC3CC3)nc2-c2ccccc2F)ccc1=O` [Example 196, N-cyclopropyl-4-(2-fluorophenyl)-5-(1-isopropyl-6-oxo-1,6-dihydro-3-pyridazinyl)-1,3-thiazole-2-carboxamide]: the melting point lay in the range of 133.5 to 135 °C.
For `CC(C)n1nc(-c2sc(C(=O)NC3CC3)nc2-c2cccc(F)c2)ccc1=O` [Example 197, N-cyclopropyl-4-(3-fluorophenyl)-5-(1-isopropyl-6-oxo-1,6-dihydro-3-pyridazinyl)-1,3-thiazole-2-carboxamide], the melting point lay in the range of 145.5 to 147 °C.
`CC(C)n1nc(-c2sc(C(=O)NC3CC3)nc2-c2ccc(F)cc2)ccc1=O` [Example 198, N-cyclopropyl-4-(4-fluorophenyl)-5-(1-isopropyl-6-oxo-1,6-dihydro-3-pyridazinyl)-1,3-thiazole-2-carboxamide] had a melting point of 157 to 158 °C.
Consider `CC(C)n1nc(-c2sc(C(=O)NC3CC3)nc2-c2cccc(Cl)c2)ccc1=O` [Example 199, 4-(3-chlorophenyl)-N-cyclopropyl-5-(1-isopropyl-6-oxo-1,6-dihydro-3-pyridazinyl)-1,3-thiazole-2-carboxamide], for which the melting point lay in the range of 118.5 to 119.5 °C.
As for `O=C(NCc1ccccn1)c1nc(-c2ccccc2)c(-c2ccc(=O)[nH]n2)s1` [Example 200, 5-(6-oxo-1,6-dihydro-3-pyridazinyl)-4-phenyl-N-(2-pyridinylmethyl)-1,3-thiazole-2-carboxamide], the figure is 221 to 222.5 °C; as for `Cn1nc(-c2sc(C(=O)NCc3ccccn3)nc2-c2ccccc2)ccc1=O` [Example 201, 5-(1-methyl-6-oxo-1,6-dihydro-3-pyridazinyl)-4-phenyl-N-(2-pyridinylmethyl)-1,3-thiazole-2-carboxamide], 189 to 190.5 °C.
`CCn1nc(-c2sc(C(=O)NCc3ccccn3)nc2-c2ccccc2)ccc1=O` [Example 202, 5-(1-Ethyl-6-oxo-1,6-dihydro-3-pyridazinyl)-4-phenyl-N-(2-pyridinylmethyl)-1,3-thiazole-2-carboxamide]: the melting point was 169 to 170.5 °C.
`CCCn1nc(-c2sc(C(=O)NCc3ccccn3)nc2-c2ccccc2)ccc1=O` [Example 203, 5-(6-Oxo-1-propyl-1,6-dihydro-3-pyridazinyl)-4-phenyl-N-(2-pyridinylmethyl)-1,3-thiazole-2-carboxamide]: the melting point is 134 to 135.5 °C.
